Data set [1] deals with Nanogam (human immunoglobulins). As to the kind of experiment: Reduction in aggregation of Nanogam at its isoelectric point (light scattering at 12.8°, Malvern NanoZS). The data set is classed as physicochemical. The settings on record: 40 mg/ml human immunoglobulins, pH 8.5 (pI), relative to Nanogam at pH 4.3. Here is the method:
The Nanogam formulation is a formulation of human immunoglobulins at 50 mg/ml and at pH 4.3 containing various IgG subclasses (IgG1: 54-70%, IgG2: 29-45%, IgG3: 1-4%, IgG4: 0-0.5%, IgA: at most 6 μg/ml). […] A test with various compounds is therefore carried out at the isoelectric point in order to identify the compounds which make it possible to reduce this aggregation phenomenon.
A commercial solution of Nanogam at 50 mg/ml is used. […] Mixing between the solution of Nanogam and one of the solutions of compound is carried out in order to obtain a solution containing 40 mg/ml of human immunoglobulins and the desired concentration of compound. The pH of the various solutions is adjusted to pH 8.5 by adding hydrochloric acid or sodium hydroxide depending on the pH achieved following the mixing between the compound of interest and the solution of human immunoglobulins.
The mixtures are then analyzed by light scattering on a Malvern NanoZS instrument.
The scattered intensities are measured at 12.8°.

For a further data set, the target named is T1, human insulin (Homo sapiens, UniProt P01308).
T1 construct: A solution of human insulin at 500 IU/ml is prepared
T1 sequence (P01308 25-54 limits assumed): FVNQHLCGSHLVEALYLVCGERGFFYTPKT
T1 sequence (P01308 90-110 limits assumed): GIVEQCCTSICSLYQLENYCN
As to the kind of experiment: Solubilization of human insulin at its isoelectric point (visual appearance, soluble fraction by RP-HPLC). The data set is classed as physicochemical. On the set-up: key to Visual appearance: Cloudy: If the solution is cloudy, the compound at the concentration tested does not allow total solubilization of human insulin at its isoelectric point; Clear: If the solution is clear, the compound allows total solubilization of human insulin at the concentration tested. The settings on record: 100 IU/ml human insulin, pH 5.3 (pI). The procedure: Human insulin has an isoelectric point (pI) of 5.3. […] A test of solubility at the pI of human insulin with various compounds is carried out. […] Solutions of compounds at various concentrations in water are prepared as described in examples B1 to B4. […] The pH of the various solutions is adjusted to pH 5.3 by adding hydrochloric acid or sodium hydroxide depending on the pH achieved following the mixing between the compound and the solution of human insulin. The appearance of the solution is documented. […] If the solution is clear, the compound allows total solubilization of human insulin at the concentration tested. In addition, the mixtures are centrifuged at 4000 rpm for 10 minutes in a Hereaus Biofuge Pico centrifuge (Rotor #3328) and then filtered through 0.22 μm in order to remove the precipitate. The resulting soluble fractions are then assayed by RP-HPLC (column: Sunfire C18, Waters ref:186003417; mobile phase: sodium phosphate/acetonitrile gradient; detection: UV at 276 nm) with an external insulin range in order to quantify the percentage of soluble insulin at the pI.

For data set [2] the following is noted: at pH 5.3 (pI); cited from earlier work.
[3] abbreviates: compound 180 mmol/l, molar ratio compound/Nanogam 675.
Where [4] appears, read: compound 75 mmol/l, molar ratio compound/insulin 125.
Where [5] appears, read: compound 750 mmol/l, molar ratio compound/insulin 1250.
[6] abbreviates: compound 120 mmol/l, molar ratio compound/insulin 200.
The mark [7] stands for this setting: compound 150 mmol/l, molar ratio compound/insulin 250.
Where [8] appears, read: compound 300 mmol/l, molar ratio compound/insulin 500.

For `O=C(O)Cc1ccccc1` [Phenylacetic acid], the “Iscat 12.8° standardized” value in data set [1] (setting [3]) was determined as 20.082.

Take “Human insulin control: Human insulin at 100 IU/ml, pH 5.3, without solubilizing compound”: in the data set with human insulin (control without compound), the “Soluble insulin recovery (%)” value worked out at 11% and the Visual appearance entry is “Cloudy”. In addition, the “Concentration at which human insulin precipitates” value in data set [2] is recorded as “greater than or equal to 10 IU/ml”.

Consider `CC(=O)O` [Acetic acid, reference compound], for which, in data set [1] (setting [3]), the “Iscat 12.8° standardized” value came to 200.18.

For the compound `N[C@@H](Cc1c[nH]cn1)C(=O)O` [Histidine, L-histidine, reference compound], at human insulin (setting [4]), the “Soluble insulin recovery (%)” value is 48% and the Visual appearance result was “Cloudy”. In addition, the “Iscat 12.8° standardized” value in data set [1] (compound 40 mmol/l, molar ratio compound/Nanogam 150) was determined as 80.82.

As for `O=C(O)C(O)c1ccccc1` (stereo not drawn) [Mandelic acid], at human insulin (setting [5]), the “Soluble insulin recovery (%)” value was 100% and the Visual appearance result was “Clear”. Besides, the “Iscat 12.8° standardized” value in data set [1] (compound 27.5 mmol/l, molar ratio compound/Nanogam 675) was determined as 22.15.

Regarding `CC(Oc1ccccc1)C(=O)O` (stereo not drawn) [2-Phenoxypropionic acid], the “Iscat 12.8° standardized” value in data set [1] (setting [3]) stood at 6.38.

Take `O=C(CO)N[C@@H](Cc1c[nH]c2ccccc12)C(=O)O` [Molecule A2, N-(2-hydroxyacetyl)-L-tryptophan]: at human insulin (setting [6]), the “Soluble insulin recovery (%)” value worked out at 100% and the Visual appearance entry is listed as “Clear”.

Consider `OC[C@H]1O[C@@](CO)(O[C@H]2O[C@H](CO)[C@@H](O)[C@H](O)[C@H]2O)[C@@H](O)[C@@H]1O` [Sucrose, reference compound], for which, on human insulin (setting [7]), the “Soluble insulin recovery (%)” value turned out to be 67% and the Visual appearance result was “Cloudy”. Moreover, at human insulin (setting [8]), the “Soluble insulin recovery (%)” value turned out to be 35% and the Visual appearance result was “Cloudy”.

In the case of `O=C(CO)N[C@@H](Cc1ccccc1)C(=O)O` [Molecule A1, N-(2-hydroxyacetyl)-L-phenylalanine], on human insulin (setting [8]), the “Soluble insulin recovery (%)” value is 100% and the Visual appearance result is “Clear”. Besides, in data set [1] (compound 85 mmol/l, molar ratio compound/Nanogam 320), the “Iscat 12.8° standardized” value is recorded as 23.5.
